Test results taken from patent US9163044B2, “Carbon monoxide releasing molecules and uses thereof” (Alfama, Inc., priority 2011, dated 2015).

Columns and labels:
[1] = tissue CO distribution in CD-1 female mice; assay type: in vivo; conditions: for CO levels in the liver compared with blood, kidney, heart and lung tissues (in words): 50 mg/kg i.v., CD-1 female mice
Source text: Carbon monoxide-releasing molecules (CO-RMs) are carriers of carbon monoxide (CO) and can release CO in vivo. CO can bind to hemoglobin in the blood and to various heme proteins in cells. Vreman et al. Anal Biochem 341:280-289 describes a method to release CO bound to tissues into the gas phase, and quantify it using GC-RCP chromatography. We applied this methodology to assay CO in various tissues of mice treated with CO-RMs (see Example 2, herein). However, since the CO release method of Vreman (in vitro incubation with sulfosalicylic acid) also releases CO from the CO-RM, the CO released from tissue samples represents CO bound to tissue proteins and CO from CO-RM compound accumulated in tissue. For CO-RM compounds with slow CO release rates in vivo, the CO measured at the earliest sampling point (5 min after CO-RM administration) may therefore mostly be a measure for the tissue distribution of the intact CO-RM.
The compound was dissolved in PBS and the acids neutralized with 3 eq. NaOH (from a NaOH stock solution 2.5M). The pH was brought down to about 7.5 by adding HCl (from a stock solution 1 M). The compound was then administered i.v. (50 mg/kg in 150 μL) to two CD-1 female mice (Charles River). The mice were warmed for ten minutes under an infrared lamp to facilitate the i.v. administration into a tail vein. Five and twenty minutes after the dosing, the two mice were anesthetized with IsoFluorane, and the blood was collected from the retro-orbital plexus using a Pasteur pipette containing ˜20 μL of heparin solution. The animal was opened; the portal vein was cut and the organs were perfused by injecting 10-15 mL of cold PBS in the left ventricle of the heart. Then the heart, kidneys, liver and lung were collected, briefly washed with potassium phosphate buffer, dried with a paper towel and snap frozen in liquid nitrogen. Samples of the freshly collected blood were transferred to AVOXimeter 4000 cuvettes (ITC) to measure the levels of carboxyhemoglobin (COHb), oxyhemoglobin (O2Hb) and methemoglobin (MetHb) using a portable AVOXimeter 4000 CO-oximeter. The results are shown as mean percentage of total hemoglobin species in circulation. The organs and blood were conserved at −20° C. until the CO quantization was done.
For CO quantization, the protocol described by Vreman et al was followed. The organs were cut into small pieces, which were weighed and 4 volumes of water (a volume corresponding to four times the weight of the tissue sample) were added to each organ sample. The tissues were homogenized using a tissue tearer. Aliquots of homogenate ([…]) were placed into vials to which were added water ([…]) and sulfosalicylic acid (SSA, 5 μL, 30% [wt/vol]) immediately before they were closed with a gas-tight septum cap. The vials were incubated on ice for at least 20 min before being analyzed by GC-RCP (in later experiments, the incubation time was extended to 45 minutes). The amount of CO was calculated using a calibration curve prepared from CO standards. […] COHb was determined using an oximeter (AVOXimeter 4000, USA).
Table 6 provides the CO distribution in blood, heart, liver, lung and kidney following Compound 3b administration at 50 mg/kg by […]. CO was assayed by GC-RCP, 5 and 20 minutes after administration of the compound. The CO concentration in the several organs is normalized to the amount of CO quantified in the blood (CO concentration as fraction of concentration in blood 50 mg/kg Compound 3b injected i.v. at t=0; CO assayed in tissues by GC at t=5 min and t=20 min).

[2] = in vitro metabolism study: decay on incubation with liver microsomes; assay type: in vitro ADME; conditions: one hour / 60 minutes incubation
Procedure: Sixty percent decay could release up to 1.8 molar equivalents of CO. […] Therefore liver microsomes accelerate the decomposition of the compound. […] Microsomes were incubated with Compound 1b using closed vials to enable quantitative measurement of the released CO. As a control, Compound 1b was incubated under similar conditions in the absence of microsomes.
In an in vitro metabolism study of the CO release kinetics of Compound 3b, it was determined that 80% of Compound 3b decayed in 60 minutes incubation with liver microsomes. In order to investigate if this accelerated decomposition of Compound 3b in the presence of microsomes was inducing a faster CO release from the compound, the CO release profile of Compound 3b in the presence of liver microsomes was determined. Microsomes were incubated with Compound 3b using closed vials to enable quantitative measurement of the released CO. As a control, Compound 3b was incubated under similar conditions in the absence of microsomes. […] The initial rate of CO release is 0.0297 CO equivalents (297.22 pmol) per minute in the presence of microsomes and 0.0072 CO equivalents (72.265 pmol) per minute in the absence of microsomes.

[3] = CO release kinetics in the presence of rat liver microsomes, K-phosphate buffer (pH 7.4); assay type: in vitro ADME; conditions: for effect of liver microsomes on CO release / decay (in words): compared with incubation without microsomes; for CO eq. released in 1 h, Microsomes K-phosphate buffer (pH 7.4): with microsomes, 10 μM, 37° C., dark
Procedure: General Method for the CO Release in the Presence of Liver Microsomes
The CO release kinetics of Compounds 1b, 2b, 3b, 4b, and 5b were also evaluated in the presence of rat or human liver microsomes. In a 8-mL vial, the following reagents were combined:
200 μL of 0.5 M potassium phosphate buffer, pH 7.4
50 μL of NADPH regenerating system solution A (BD, Cat. No. 451220)
10 μL of NADPH regenerating system solution B (BD, Cat. No. 451200)
2 μL of 5 mM solution of the compound in DMSO (10 μM final concentration)
(§1) The vials were closed and after mixing, the samples were warmed to 37° C. for 5 minutes before an aliquot (25 μL, 0.5 mg protein content) of rat liver microsomes (BD, Cat. No. 452511) or human liver microsomes (BD, Cat. No. 452161) was added to each vial. In parallel analogous vials with all the reagents except the microsomes were prepared. Due to the light-sensitivity of the molybdenum compounds, the reactions were performed in the dark. The samples were incubated at 37° C. and gas samples of the headspace (from 100 μL to 500 μL) of the vials were removed with a gas-tight syringe after 5, 10, 15, 30, and 60 minutes (in some cases samples were also taken at 1, 2, 3 or 4 minutes) upon microsomes addition. The gas samples were then injected into empty sealed vials (8 mL volume) and the amount of CO present in the vials was measured using GC-RCP.
The CO equivalents released at each time point from each compound were determined by the following equation: (CO released (pmol)×number of CO ligands in the molecule)/([CO] in the compound (pmol)). A 1 mL solution of a tri-carbonyl compound, at 50 μM concentration contains a total of 150,000 pmol of CO.

[4] = CO released from Compound 3b in phosphate buffer pH 7.4 alone or with human or rat microsomes (FIG. 8); assay type: in vitro ADME; conditions: 37° C.
Procedure: as §1
FIG. 8 depicts the amount of CO released from Compound 3b, expressed in equivalents of CO, in phosphate buffer pH 7.4 (“buffer”), phosphate buffer pH 7.4 in the presence of human microsomes (“human”) or rat microsomes (“rat”). The assay was performed in closed vials during 1 hour at 37° C. A gas aliquot was removed from the air space of the vials and CO concentration was determined by GC-RCP at different time points.

Molecule: tricarbonyl[tris(isocyanoacetic acid)]Mo(0) [Compound 1b]
- CO levels in the liver compared with blood, kidney, heart and lung tissues (in words) [1]: no preferential accumulation of CO in the liver
- compound decayed on incubation with liver microsomes [2]: 60%
- effect of liver microsomes on CO release / decay (in words) [3]: increased rate of CO release
- CO eq. released in 1 h, Microsomes K-phosphate buffer (pH 7.4) [3]: (1.1CO eq. in 1 h)

Molecule: CC([N+]#[C][Mo-6]([C]#[O+])([C]#[O+])([C]#[O+])([C]#[N+]C(C)C(=O)O)[C]#[N+]C(C)C(=O)O)C(=O)O (stereo not shown) [Compound 2b, tricarbonyl[tris(2-isocyanopropionic acid)]Mo(0)]
- CO levels in the liver compared with blood, kidney, heart and lung tissues (in words) [1]: increased CO levels in the liver
- effect of liver microsomes on CO release / decay (in words) [3]: accelerated the decay
- CO eq. released in 1 h, Microsomes K-phosphate buffer (pH 7.4) [3]: (0.9CO eq. in 1 h)

Molecule: [C-]#[N+]C(C)(C)C(=O)O.[C-]#[N+]C(C)(C)C(=O)O.[C-]#[N+]C(C)(C)C(=O)O.[C-]#[O+].[C-]#[O+].[C-]#[O+].[Mo] [Compound 3b, tricarbonyl[tris(2-isocyano-2-methyl-propionic acid)]Mo(0)]
- factor by which microsomes accelerate CO release ([4]; human or rat microsomes versus buffer, 1 hour): 4.0-5.5
- CO released in pH 7.4 buffer in 1 hour ([4]; phosphate buffer pH 7.4, no microsomes): 0.25 mol equiv. of CO
- CO levels in the liver compared with blood, kidney, heart and lung tissues (in words) [1]: increased CO levels in the liver
- CO concentration as fraction of concentration in blood: Blood, 5 min ([1]; 50 mg/kg, blood, t=5 min): 1
- CO concentration as fraction of concentration in blood: Blood, 20 min ([1]; 50 mg/kg, blood, t=20 min): 1
- CO concentration as fraction of concentration in blood: Heart, 5 min ([1]; 50 mg/kg, heart, t=5 min): 0.046 ± 0.012
- CO concentration as fraction of concentration in blood: Heart, 20 min ([1]; 50 mg/kg, heart, t=20 min): 0.072 ± 0.055
- CO concentration as fraction of concentration in blood: Kidney, 5 min ([1]; 50 mg/kg, kidney, t=5 min): 0.419 ± 0.295
- CO concentration as fraction of concentration in blood: Kidney, 20 min ([1]; 50 mg/kg, kidney, t=20 min): 0.074 ± 0.028
- CO concentration as fraction of concentration in blood: Liver, 5 min ([1]; 50 mg/kg, liver, t=5 min): 5.26 ± 3.18
- CO concentration as fraction of concentration in blood: Liver, 20 min ([1]; 50 mg/kg, liver, t=20 min): 0.163 ± 0.062
- CO concentration as fraction of concentration in blood: Lung, 5 min ([1]; 50 mg/kg, lung, t=5 min): 0.049 ± 0.020
- CO concentration as fraction of concentration in blood: Lung, 20 min ([1]; 50 mg/kg, lung, t=20 min): 0.060 ± 0.046
- CO concentration in the liver relative to blood ([1]; five minutes after i.v. injection): five times higher in the liver than in blood
- compound decayed on incubation with liver microsomes [2]: 80%
- effect of liver microsomes on CO release / decay (in words) [3]: increased rate of CO release
- initial CO release rate, presence versus absence of microsomes ([3]; ratio with/without microsomes): approximately 4 times faster
- CO eq. released in 1 h, Microsomes K-phosphate buffer (pH 7.4) [3]: (1.5CO eq. in 1 h)
